The record followed here is patent US20230346988A1, “SYSTEMS FOR IN VIVO MONITORING OF IMMUNE CELLS IN PATIENTS UNDERGOING CELLULAR IMMUNOTHERAPY” (Memorial Sloan Kettering Cancer Center, priority 2020, published 2023).

In this assay the test system is antitumor/anti-DOTA IgG-scFv. Briefly: Affinity measurement of DOTA-PEG6 Biotin by surface plasmon resonance (Biacore). As to conditions: SA chip coated with DOTA-PEG6 Biotin, 1:1 binding model. The source says:
Affinity measurement of […] by Surface Plasmon Resonance (Biacore). sBiacore T-100 Biosensor, streptavidin (SA) sensor chip, and related reagents were purchased from GE Healthcare. The SA chip coated with […] and then flowed over with an antitumor/anti-DOTA IgG-scFv. The KDs were generated from a sensorgram data series consisting of 6 concentrations of anti-tumor/anti-DOTA IgG-scFv, by fitting to a 1:1 binding model using the Biacore T-100 evaluation software.

As to `O=C(O)CN1CCN(CC(=O)O)CCN(CC(=O)O)C(Cc2ccc(NC(=S)NCCOCCOCCOCCOCCOCCOCCNC(=O)CCCCC3SC[C@@H]4NC(=O)N[C@H]34)cc2)CN(CC(=O)O)CC1` (stereo partly shown) [DOTA-PEG6 Biotin], the t½ is 3.811 h. For the same compound, for the setting “6 concentrations of IgG-scFv”, the dissociation constant Kd turned out to be 0.0686 nM, the ka was found to be 736000 M⁻¹ s⁻¹ and the kd was found to be 5.05e-05 s⁻¹.
